Measurements published in patent US12157730B2, “Heteroaryl derivative, method for producing same, and pharmaceutical composition comprising same as effective component” (VORONOI INC., priority 2019, dated 2024).

molecular target: T1, Ba/F3 cell EGFR Exon20 ins NPH (Homo sapiens, UniProt P00533, INS773NPH); test: Ba/F3 cell proliferation suppression, EGFR Exon20 ins NPH; format: cell-based; conditions: GI50 class; Ba/F3 cell line with NPH inserted at Exon20 of EGFR; 72 hours
T1 construct: expressed in transfected cells; host or cells: Ba/F3
Method in brief: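 Growth suppression determined as GI50 following 72 h exposure across 12 concentrations up to 50 um, with viability by luminescent ATP assay (CellTiter-Glo).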

Row | Compound | Ba/F3 (NPH) Activity
1 | C=CC(=O)Nc1cc(Nc2cc(N3OCC[C@@H]3c3ccc(Cl)cc3)ncn2)c(OC)cc1N1CCN(CC)CC1 [Example 255, N-(5-((6-((R)-3-(4-chlorophenyl)isoxazolidine-2-yl)pyrimidine-4-yl)amino)-2-(4-ethylpiperazine-1-yl)-4-methoxyphenyl) acrylamide] | A (GI50 < 50 nM)
2 | C=CC(=O)Nc1cc(Nc2cc(N3OCC[C@@H]3Cc3cccc(Cl)c3Cl)ncn2)c(OC)cc1N(C)CCN(C)C [compound 982, N-(5-((6-((S)-3-(2,3-dichlorobenzyl)isoxazolidine-2-yl)pyrimidine-4-yl)amino)-2-((2-(dimethylamino)ethyl)(methyl)amino)-4-methoxyphenyl) acrylamide] | A (GI50 < 50 nM)
3 | C=CC(=O)Nc1cc(Nc2cc(N3OCC[C@@H]3c3cc(F)ccc3F)ncn2)c(OC)cc1N1CCC(N2CCN(C)[C@@H](C)C2)CC1 [compound 850, N-(5-((6-((R)-3-(2,5-difluorophenyl)isoxazolidine-2-yl)pyrimidine-4-yl)amino)-2-(4-((S)-3,4-dimethylpiperazine-1-yl)piperidine-1-yl)-4-methoxyphenyl) acrylamide] | A (GI50 < 50 nM)
4 | C=CC(=O)Nc1cc(Nc2cc(N3OCC[C@@H]3c3ccc(F)cc3F)ncn2)c(OC)cc1N1CCC(N2CCN(C(C)C)CC2)CC1 [compound 428, N-(5-((6-((R)-3-(2,4-difluorophenyl)isoxazolidine-2-yl)pyrimidine-4-yl)amino)-2-(4-(4-isopropylpiperazine-1-yl)piperidine-1-yl)-4-methoxyphenyl) acrylamide] | A (GI50 < 50 nM)
5 | C=CC(=O)Nc1cc(Nc2cc(N3OCC[C@@H]3c3cccc(Cl)c3Cl)ncn2)c(OC)cc1N1CCN(CC2CC2)CC1 [compound 567, N-(2-(4-(cyclopropylmethyl)piperazine-1-yl)-5-((6-((R)-3-(2,3-dichlorophenyl)isoxazolidine-2-yl)pyrimidine-4-yl)amino)-4-methoxyphenyl) acrylamide] | A (GI50 < 50 nM)
6 | C=CC(=O)Nc1cc(Nc2cc(N3OCC[C@H]3c3c(F)cccc3F)ncn2)c(OC)cc1N1CCC(N2CC[C@H](N(C)C)C2)CC1 [compound 315, N-(5-((6-((S)-3-(2,6-difluorophenyl)isoxazolidine-2-yl)pyrimidine-4-yl)amino)-2-(4-((S)-3-(dimethylamino)pyrolidine-1-yl)piperidine-1-yl)-4-methoxyphenyl) acrylamide] | C (500 nM ≤ GI50 < 5000 nM)
7 | C=CC(=O)Nc1cc(Nc2cc(N3OCC[C@@H]3c3cc(F)cc(F)c3)ncn2)c(OC)cc1N1CCC(N2CCN(C)CC2=O)CC1 [compound 722, N-(5-((6-((R)-3-(3,5-difluorophenyl)isoxazolidine-2-yl)pyrimidine-4-yl)amino)-4-methoxy-2-(4-(4-methyl-2-oxopiperazine-1-yl)piperidine-1-yl)phenyl)acrylamide] | B (50 nM ≤ GI50 < 500 nM)
8 | C=CC(=O)Nc1cc(Nc2cc(N3OCC[C@@H]3c3cccc(Cl)c3C)ncn2)c(OC)cc1N1CCC(N2CCN(C3CCC3)CC2)CC1 [Example 188, N-(5-((6-((R)-3-(3-chloro-2-methylphenyl)isoxazolidine-2-yl)pyrimidine-4-yl)amino)-2-(4-(4-cyclobutylpiperazine-1-yl)piperidine-1-yl)-4-methoxyphenyl) acrylamide] | A (GI50 < 50 nM)
9 | C=CC(=O)Nc1cc(Nc2cc(N3OCC[C@@H]3c3cc(F)cc(F)c3)ncn2)c(OC)cc1N1CCC(N2C[C@H]3CC[C@@H](C2)N3C2CC2)CC1 [Example 115, N-(2-(4-((1R,5S)-8-cyclopropyl-3,8-diazabicyclo[3.2.1]octan-3-yl)piperidine-1-yl)-5-((6-((R)-3-(3,5-difluorophenyl)isoxazolidine-2-yl)pyrimidine-4-yl)amino)-4-methoxyphenyl) acrylamide] | A (GI50 < 50 nM)
10 | C=CC(=O)Nc1cc(Nc2cc(N3OCC[C@@H]3Cc3ccccc3)ncn2)c(OC)cc1N1CCC(OCCN(CC)CC)CC1 [compound 978, N-(5-((6-((S)-3-benzylisoxazolidine-2-yl)pyrimidine-4-yl)amino)-2-(4-(2-(diethylamino)ethoxy)piperidine-1-yl)-4-methoxyphenyl) acrylamide] | C (500 nM ≤ GI50 < 5000 nM)
11 | C=CC(=O)Nc1cc(Nc2cc(N3OCC[C@@H]3c3ccc(Cl)cc3F)ncn2)c(OC)cc1N1CC[C@@H](N2CCOCC2)C1 [compound 406, N-(5-((6-((R)-3-(4-chloro-2-fluorophenyl)isoxazolidine-2-yl)pyrimidine-4-yl)amino)-4-methoxy-2-((R)-3-morpholinopyrolidine-1-yl)phenyl)acrylamide] | A (GI50 < 50 nM)
12 | C=CC(=O)Nc1cc(Nc2cc(N3OCC[C@@H]3c3ccc(F)cc3)ncn2)c(OC)cc1N1CCC(N2CCN(C(C)=O)CC2)CC1 [compound 809, N-(2-(4-(4-acetylpiperazine-1-yl)piperidine-1-yl)-5-((6-((R)-3-(4-fluorophenyl)isoxazolidine-2-yl)pyrimidine-4-yl)amino)-4-methoxyphenyl) acrylamide] | A (GI50 < 50 nM)
13 | C=CC(=O)Nc1cc(Nc2cc(N3OCC[C@@H]3c3ccc4ccccc4c3)ncn2)c(OC)cc1N1CCN(C)CC1 [compound 509, N-(4-methoxy-2-(4-methylpiperazine-1-yl)-5-((6-((R)-3-(naphthalene-2-yl)isoxazolidine-2-yl)pyrimidine-4-yl)amino)phenyl)acrylamide] | B (50 nM ≤ GI50 < 500 nM)
14 | C=CC(=O)Nc1cc(Nc2cc(N3OCC[C@@H]3c3cccc(Cl)c3F)ncn2)c(OC)cc1N1CCC(N2C[C@H]3C[C@@H]2CO3)CC1 [Example 258, N-(2-(4-((1R,4R)-2-oxa-5-azabicyclo [2.2.1]heptane-5-yl)piperidine-1-yl)-5-((6-((R)-3-(3-chloro-2-fluorophenyl)isoxazolidine-2-yl)pyrimidine-4-yl)amino)-4-methoxyphenyl) acrylamide] | A (GI50 < 50 nM)
15 | C=CC(=O)Nc1cc(Nc2cc(N3OCC[C@@H]3c3cccc(F)c3)ncn2)c(OC)cc1N1CCN(C2COC2)CC1 [compound 792, N-(5-((6-((R)-3-(3-fluorophenyl)isoxazolidine-2-yl)pyrimidine-4-yl)amino)-4-methoxy-2-(4-(oxetane-3-yl)piperazine-1-yl)phenyl) acrylamide] | A (GI50 < 50 nM)
16 | C=CC(=O)Nc1cc(Nc2cc(N3OCC[C@@H]3c3ccccc3)ncn2)c(OC)cc1N1CCC(N2CCN(C(C)C)CC2)CC1 [Example 283, N-(2-(4-(4-isopropylpiperazine-1-yl)piperidine-1-yl)-4-methoxy-5-((6-((R)-3-phenylisoxazolidine-2-yl)pyrimidine-4-yl)amino)phenyl) acrylamide] | A (GI50 < 50 nM)
17 | C=CC(=O)Nc1cc(Nc2cc(N3OCC[C@@H]3c3cc(F)cc(F)c3)ncn2)c(OC)cc1N1CCC(N2CCN(C)[C@@H](C)C2)CC1 [compound 760, N-(5-((6-((R)-3-(3,5-difluorophenyl)isoxazolidine-2yl)pyrimidine-4-yl)amino)-2-(4-((S)-3,4-dimethylpiperazine-1-yl)piperidine-1-yl)-4-methoxyphenyl) acrylamide] | A (GI50 < 50 nM)
